Several values for one entry are separate records, joined by “and”; a condition that tells them apart may be missing. Identical values can stand only once.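 In this assay, cells in 96-well plates receive the compound at five concentrations for 48 hours. Endpoints are linearly interpolated between the surrounding concentrations. Here, GI50 denotes the concentration required for 50% inhibition of growth. Definition used: TGI = concentration required for complete inhibition of growth.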
Columns and labels:
Experiment in all cases: NCI anticancer screen, dose series, 48 h
[1] = system: SW-620 colon
[2] = system: EKVX NSCLC
[3] = system: UACC-257 melanoma
[4] = system: 786-0 renal
[5] = system: CAKI-1 renal
[6] = system: OVCAR-3 ovarian
[7] = system: SK-MEL-28 melanoma
[8] = system: MOLT-4 leukemia
[9] = system: SN12C renal
[10] = system: HOP-92 NSCLC

O=C(NCCNc1nccc(-c2c(-c3ccc(F)cc3)nc3sccn23)n1)Nc1cccc(C(F)(F)F)c1
GI50 [1]: 13.6 µM | TGI [1]: 32 µM | GI50 [2]: 4.69 µM | TGI [2]: 30.6 µM | GI50 [3]: 10.6 µM | TGI [3]: 26.1 µM | GI50 [4]: 5.16 µM | TGI [4]: 24.9 µM | GI50 [5]: 3.68 µM | TGI [5]: 27.6 µM | GI50 [6]: 17.7 µM | TGI [6]: 94.5 µM | GI50 [7]: 7.76 µM | TGI [7]: 20.9 µM | GI50 [8]: 6.3 µM | TGI [8]: > 100 µM | GI50 [9]: 6.42 µM | TGI [9]: 22.7 µM | GI50 [10]: 4.59 µM | TGI [10]: 33.3 µM

CCCC(c1cc(C(C)(C)C)c(O)cc1C)c1cc(C(C)(C)C)c(O)cc1C
TGI [1]: 10.2 µM | TGI [2]: 7.75 µM | TGI [3]: 5.69 µM | TGI [4]: 5.41 µM | TGI [5]: 15.3 µM | TGI [6]: 3.93 µM | TGI [7]: 12.4 µM | TGI [8]: 5.41 µM | TGI [9]: 3.81 µM | TGI [10]: 22.5 µM

Nc1nc(N)c2cc(Sc3ccc(Cl)cc3)ccc2n1
GI50 [1]: 0.306 µM | TGI [1]: 1.63 µM | GI50 [2]: 1.66 µM | TGI [2]: 17.6 µM | GI50 [3]: 1.41 µM | TGI [3]: 5.72 µM | GI50 [4]: 0.582 µM | TGI [4]: 2.04 µM | GI50 [5]: 3.25 µM | TGI [5]: 16.1 µM | GI50 [6]: 3.5 µM | TGI [6]: 12.6 µM | GI50 [7]: 2.68 µM | TGI [7]: 8.05 µM | GI50 [8]: 1.9 µM | TGI [8]: 11.1 µM | GI50 [9]: 2.91 µM | TGI [9]: 17.9 µM | GI50 [10]: 1.51 µM | TGI [10]: 7 µM

COc1cccc(Nc2ncnn3ccc(CN4CC[C@@H](N)[C@H](O)C4)c23)c1
GI50 [1]: 17.7 µM and > 4.35 µM | TGI [1]: 44.5 µM and > 10 µM | GI50 [2]: 0.0275 µM and 0.0282 µM | TGI [2]: > 100 µM | GI50 [3]: 17.5 µM and > 5.79 µM | TGI [3]: 34 µM and > 10 µM | GI50 [4]: 1.08 µM and 1.18 µM | TGI [4]: 20.6 µM and > 10 µM | GI50 [5]: 0.2 µM and 0.242 µM | TGI [5]: 2.52 µM and > 4.35 µM | GI50 [6]: 3.92 µM and 1.63 µM | TGI [6]: > 60.8 µM | GI50 [7]: 17 µM and > 5.4 µM | TGI [7]: 31.1 µM and > 10 µM | GI50 [8]: 5.68 µM and 2.26 µM | TGI [8]: 33.2 µM and > 10 µM | GI50 [9]: 0.265 µM and 0.304 µM | TGI [9]: 18.5 µM and > 10 µM | GI50 [10]: 0.125 µM and 0.194 µM | TGI [10]: 5.21 µM and > 6.86 µM

NS(=O)(=O)c1ccc(N=Nc2c(O)[nH]c3cccc(CCc4ccncc4)c23)cc1
GI50 [1]: > 25 µM | TGI [1]: > 25 µM | GI50 [2]: > 25 µM | TGI [2]: > 25 µM | GI50 [3]: > 25 µM | TGI [3]: > 25 µM | GI50 [4]: > 25 µM | TGI [4]: > 25 µM | GI50 [5]: > 25 µM | TGI [5]: > 25 µM | GI50 [6]: > 25 µM | TGI [6]: > 25 µM | GI50 [7]: > 25 µM | TGI [7]: > 25 µM | GI50 [8]: > 25 µM | TGI [8]: > 25 µM | GI50 [9]: > 25 µM | TGI [9]: > 25 µM | GI50 [10]: > 25 µM | TGI [10]: > 25 µM

Nc1n[nH]c2ccc([C@H]3[C@@H]4C5CCC(C5)[C@@H]4c4c(ccc5[nH]ncc45)N3S(=O)(=O)C3CC3)cc12 (some centres undefined)
GI50 [1]: 0.203 µM | TGI [1]: > 33.7 µM | GI50 [2]: 0.264 µM | TGI [2]: > 45.4 µM | GI50 [3]: 8.04 µM | TGI [3]: > 47.5 µM | GI50 [4]: 0.366 µM | TGI [4]: 22.3 µM | GI50 [5]: 0.156 µM | TGI [5]: 3.42 µM | GI50 [6]: 0.181 µM | TGI [6]: 7.16 µM | GI50 [7]: 2 µM | TGI [7]: 26 µM | GI50 [8]: 0.184 µM | GI50 [9]: 0.272 µM | TGI [9]: > 50 µM | GI50 [10]: 0.422 µM | TGI [10]: 11.1 µM

Cc1ccc(C)c(N2C(=O)C(=O)C(c3nc4ccccc4s3)C(=O)C2=O)c1
TGI [1]: > 100 µM | TGI [2]: > 100 µM | TGI [3]: > 100 µM | TGI [4]: > 100 µM | TGI [5]: > 100 µM | TGI [6]: > 100 µM | TGI [7]: > 100 µM | TGI [8]: > 100 µM | TGI [9]: > 100 µM | TGI [10]: > 100 µM

Cc1cc(S(=O)(=O)Nc2n[nH]c(-c3ccc(Cl)cc3)c2C#N)c(S)cc1Cl
GI50 [1]: > 100 µM | TGI [1]: > 100 µM | GI50 [2]: > 100 µM | TGI [2]: > 100 µM | GI50 [3]: > 100 µM | TGI [3]: > 100 µM | GI50 [4]: > 100 µM | TGI [4]: > 100 µM | GI50 [5]: 30.3 µM | TGI [5]: > 100 µM | GI50 [6]: > 100 µM | TGI [6]: > 100 µM | GI50 [7]: > 100 µM | TGI [7]: > 100 µM | GI50 [8]: > 100 µM | TGI [8]: > 100 µM | GI50 [9]: > 100 µM | TGI [9]: > 100 µM | GI50 [10]: > 100 µM | TGI [10]: > 100 µM

Cc1cc2c(cc1C)[n+](=O)c(C(=O)CC(=O)C(=O)Nc1ccccc1C)c(C)n2[O-]
TGI [1]: > 100 µM | TGI [2]: > 100 µM | TGI [3]: > 100 µM | TGI [4]: > 100 µM | TGI [5]: > 100 µM | TGI [6]: > 100 µM | TGI [7]: > 100 µM | TGI [8]: > 100 µM | TGI [9]: > 100 µM | TGI [10]: > 100 µM

O=C(NC(=S)Nc1ccc(-c2nc3ccccc3[nH]2)cc1)c1ccc2ccccc2c1
GI50 [1]: 4.2 µM | TGI [1]: > 100 µM | GI50 [2]: 22.9 µM | TGI [2]: > 100 µM | GI50 [3]: 5.59 µM | TGI [3]: > 100 µM | GI50 [4]: 1.88 µM | TGI [4]: 3.52 µM | GI50 [5]: 1.96 µM | TGI [5]: 4.58 µM | GI50 [6]: 3.22 µM | TGI [6]: 10.1 µM | GI50 [7]: 3.86 µM | TGI [7]: 23.4 µM | GI50 [8]: 8.04 µM | TGI [8]: > 100 µM | GI50 [9]: 3.18 µM | TGI [9]: 9.81 µM | GI50 [10]: 2.17 µM | TGI [10]: 7.02 µM

COC(=O)c1oc([N+](=O)[O-])c(-c2ccccc2)c1-c1ccccc1
TGI [1]: > 100 µM | TGI [2]: > 100 µM | TGI [3]: > 100 µM | TGI [4]: > 100 µM | TGI [5]: > 100 µM | TGI [6]: > 100 µM | TGI [7]: > 100 µM | TGI [8]: > 100 µM | TGI [9]: > 100 µM | TGI [10]: > 100 µM

O=[N+]([O-])c1cccc(C=NC23CC4CC(CC(C4)C2)C3)c1
TGI [1]: > 100 µM | TGI [2]: > 100 µM | TGI [3]: > 100 µM | TGI [4]: > 100 µM | TGI [5]: > 100 µM | TGI [6]: > 100 µM | TGI [7]: > 100 µM | TGI [8]: > 100 µM | TGI [9]: > 100 µM | TGI [10]: > 100 µM

From PubChem BioAssay (NCI)
